# In ChEMBL document CHEMBL1146253, “A distal methyl substituent attenuates mitochondrial protein synthesis inhibition in oxazolidinone antibacterials” (Bioorg Med Chem Lett, 2007):
# Experiments:
# Assay type in all cases: functional
# Enterococcus faecalis = experiment: Antibacterial activity against Enterococcus faecalis by broth microdilution method
# Streptococcus pneumoniae = experiment: Antibacterial activity against Streptococcus pneumoniae by broth microdilution method
# Escherichia coli = experiment: Intrinsic binding affinity to Escherichia coli ribosmes by TnT assay
# Staphylococcus aureus = experiment: Antibacterial activity against Staphylococcus aureus by broth microdilution method
MIC90 (Enterococcus faecalis) [µg/mL],MIC90 (Streptococcus pneumoniae) [µg/mL],IC50 (Escherichia coli) [nM],MIC90 (Staphylococcus aureus) [µg/mL],Structure (SMILES)
2,1,1900,2,CC(=O)NC[C@H]1CN(c2cc(F)c(N3CC(O)C3)c(F)c2)C(=O)O1
4,1,3400,4,CC(=O)NC[C@H]1CN(c2cc(F)c(N3CC(C)(O)C3)c(F)c2)C(=O)O1
2,2,2700,4,CCC1(O)CN(c2c(F)cc(N3C[C@H](CNC(C)=O)OC3=O)cc2F)C1
2,1,2600,2,COC1CN(c2c(F)cc(N3C[C@H](CNC(C)=O)OC3=O)cc2F)C1
4,1,3700,4,COC1(C)CN(c2c(F)cc(N3C[C@H](CNC(C)=O)OC3=O)cc2F)C1
2,1,2300,4,CC(=O)NC[C@H]1CN(c2cc(F)c(N3CC(C)(F)C3)c(F)c2)C(=O)O1
2,1,2100,4,CC(=O)NC[C@H]1CN(c2cc(F)c(N3CCC(C)(O)CC3)c(F)c2)C(=O)O1
1,1,–,2,CC(=O)NC[C@H]1CN(c2cc(F)c(N3CCC(C)(CC#N)CC3)c(F)c2)C(=O)O1
2,1,2100,4,CCC1(O)CCN(c2c(F)cc(N3C[C@H](CNC(C)=O)OC3=O)cc2F)CC1
1,1,1600,2,CC(=O)NC[C@H]1CN(c2cc(F)c(N3CCC(CC#N)CC3)c(F)c2)C(=O)O1
2,2,2400,4,CC(=O)NC[C@H]1CN(c2cc(F)c(N3CC(O)(C(F)(F)F)C3)c(F)c2)C(=O)O1
2,1,1400,2,CC(=O)NC[C@H]1CN(c2cc(F)c(N3CC(F)C3)c(F)c2)C(=O)O1
2,1,1700,2,CC(=O)NC[C@H]1CN(c2cc(F)c(N3CCC(O)CC3)c(F)c2)C(=O)O1

Structure (SMILES),MIC90 (Enterococcus faecalis) [µg/mL],MIC90 (Streptococcus pneumoniae) [µg/mL],IC50 (Escherichia coli) [nM],MIC90 (Staphylococcus aureus) [µg/mL]
CC(=O)NC[C@H]1CN(c2ccc(N3CCOCC3)c(F)c2)C(=O)O1 [LINEZOLID],4,1,–,4
